How the values were obtained:
Assay in all cases: Test B pre-/postemergence
Assay type in all cases: in vivo
Design in all cases: key: 0 is no effect; 10 is complete control
wild oat (Avena fatua) = system: wild oat (Avena fatua)
How it was run: (§1)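 Compounds in a surfactant-containing, non-phytotoxic solvent blend are applied to freshly planted seed (preemergence) and, concurrently, to seedlings of 2 to 18 cm at 1–4 leaves (postemergence). Plants stay in the greenhouse twelve to sixteen days and are then scored visually from 0 (no effect) to 10 (complete control).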

[1] = system: blackgrass (Alopecurus myosuroides)
How it was run: as §1

[2] = system: purple nutsedge (Cyperus rotundus)
How it was run: as §1

[3] = system: crabgrass (Digitaria sanguinalis)
How it was run: as §1

soybean (Glycine max) = system: soybean (Glycine max)
How it was run: as §1

[4] = Preemergence, Rate 62 g/ha, scale of 0 to 10

**Q.** With `Cc1cnc(-n2cnc(C(F)(F)F)n2)nc1Cn1ccc(C(F)(F)F)n1` [Compound 51] as the molecule, how does the “Wild oats plant response rating” value (wild oat (Avena fatua); Rate 62 g/ha, Postemergence) read?
**A.** The value was 8.

**Q.** What about the “Wild oats plant response rating” value (wild oat (Avena fatua); Rate 62 g/ha, Preemergence) of the same molecule?
**A.** Its value is 4.

**Q.** What about the “Wild oats plant response rating” value (wild oat (Avena fatua); Rate 125 g/ha, Postemergence) of the same molecule?
**A.** The value was 9.

**Q.** What about the “Plant response rating, Wild oats” value (wild oat (Avena fatua); Rate 125 g/ha, Preemergence) of the same molecule?
**A.** The value was 7.

**Q.** And the “Plant response rating, Wild oats” value (wild oat (Avena fatua); Rate 250 g/ha, Postemergence)?
**A.** The value was 9.

**Q.** What about the “Plant response rating, Wild oats” value (wild oat (Avena fatua); Rate 250 g/ha, Preemergence) of the same molecule?
**A.** Its value is 8.

**Q.** What about the “Plant response rating, Blackgrass” value ([1]; Rate 62 g/ha, Postemergence) of the same molecule?
**A.** Its value is 7.

**Q.** And the “Blackgrass plant response rating” value ([1]; Rate 62 g/ha, Preemergence)?
**A.** Its value is 7.

**Q.** What about the “Blackgrass plant response rating” value ([1]; Rate 125 g/ha, Postemergence) of the same molecule?
**A.** Its value is 9.

**Q.** And the “Plant response rating, Blackgrass” value ([1]; Rate 125 g/ha, Preemergence)?
**A.** The value was 9.

**Q.** What about the “Plant response rating, Blackgrass” value ([1]; Rate 250 g/ha, Postemergence) of the same molecule?
**A.** The value was 9.

**Q.** And the “Plant response rating, Blackgrass” value ([1]; Rate 250 g/ha, Preemergence)?
**A.** Its value is 10.

**Q.** And the “Plant response rating, Nutsedge” value ([2]; Rate 62 g/ha, Postemergence)?
**A.** Its value is 7.

**Q.** And the “Nutsedge plant response rating” value ([2]; Rate 62 g/ha, Preemergence)?
**A.** Its value is 3.

**Q.** What about the “Plant response rating, Nutsedge” value ([2]; Rate 125 g/ha, Preemergence) of the same molecule?
**A.** Its value is 9.

**Q.** What about the “Plant response rating, Crabgrass” value ([3]; Rate 62 g/ha, Postemergence) of the same molecule?
**A.** The value was 9.

**Q.** And the “Crabgrass plant response rating” value ([3]; Rate 62 g/ha, Preemergence)?
**A.** The value was 10.

**Q.** What about the “Crabgrass plant response rating” value ([3]; Rate 125 g/ha, Postemergence) of the same molecule?
**A.** The value was 10.

**Q.** And the “Plant response rating, Crabgrass” value ([3]; Rate 125 g/ha, Preemergence)?
**A.** Its value is 10.

**Q.** What about the “Plant response rating, Crabgrass” value ([3]; Rate 250 g/ha, Postemergence) of the same molecule?
**A.** The value was 10.

**Q.** And the “Plant response rating, Crabgrass” value ([3]; Rate 250 g/ha, Preemergence)?
**A.** Its value is 10.

**Q.** What about the “Plant response rating, Soybean” value (soybean (Glycine max); Rate 62 g/ha, Postemergence) of the same molecule?
**A.** Its value is 9.

**Q.** What about the “Soybean plant response rating” value (soybean (Glycine max); Rate 62 g/ha, Preemergence) of the same molecule?
**A.** The value was 9.

**Q.** What about the “Soybean plant response rating” value (soybean (Glycine max); Rate 125 g/ha, Postemergence) of the same molecule?
**A.** Its value is 9.

**Q.** And the “Plant response rating, Soybean” value (soybean (Glycine max); Rate 125 g/ha, Preemergence)?
**A.** The value was 9.

**Q.** What about the “Plant response rating, Soybean” value (soybean (Glycine max); Rate 250 g/ha, Postemergence) of the same molecule?
**A.** Its value is 10.

**Q.** What about the “Plant response rating, Soybean” value (soybean (Glycine max); Rate 250 g/ha, Preemergence) of the same molecule?
**A.** The value was 9.

**Q.** For `Cc1cnc(-c2ccc(OC(F)(F)F)cc2)nc1Cc1cccc(C(F)(F)F)c1` [Compound 16], which “Plant response rating, Wild oats” value (wild oat (Avena fatua); Rate 62 g/ha, Postemergence) is on record?
**A.** Its value is 0.

**Q.** And the “Wild oats plant response rating” value (wild oat (Avena fatua); Rate 62 g/ha, Preemergence)?
**A.** Its value is 0.

**Q.** And the “Plant response rating, Wild oats” value (wild oat (Avena fatua); Rate 125 g/ha, Postemergence)?
**A.** Its value is 0.

**Q.** And the “Wild oats plant response rating” value (wild oat (Avena fatua); Rate 125 g/ha, Preemergence)?
**A.** The value was 1.

**Q.** What about the “Plant response rating, Wild oats” value (wild oat (Avena fatua); Rate 250 g/ha, Postemergence) of the same molecule?
**A.** Its value is 1.

**Q.** What about the “Plant response rating, Wild oats” value (wild oat (Avena fatua); Rate 250 g/ha, Preemergence) of the same molecule?
**A.** Its value is 2.

**Q.** What about the “Plant response rating, Wild oats” value (wild oat (Avena fatua); Rate 500 g/ha, Postemergence) of the same molecule?
**A.** Its value is 1.

**Q.** What about the “Plant response rating, Wild oats” value (wild oat (Avena fatua); Rate 500 g/ha, Preemergence) of the same molecule?
**A.** Its value is 3.

**Q.** What about the “Plant response rating, Blackgrass” value ([1]; Rate 62 g/ha, Postemergence) of the same molecule?
**A.** The value was 1.

**Q.** What about the “Blackgrass plant response rating” value ([1]; Rate 62 g/ha, Preemergence) of the same molecule?
**A.** The value was 0.

**Q.** And the “Plant response rating, Blackgrass” value ([1]; Rate 125 g/ha, Postemergence)?
**A.** The value was 1.

**Q.** And the “Blackgrass plant response rating” value ([1]; Rate 125 g/ha, Preemergence)?
**A.** Its value is 0.

**Q.** What about the “Plant response rating, Blackgrass” value ([1]; Rate 250 g/ha, Postemergence) of the same molecule?
**A.** Its value is 2.

**Q.** And the “Plant response rating, Blackgrass” value ([1]; Rate 250 g/ha, Preemergence)?
**A.** The value was 2.

**Q.** And the “Plant response rating, Blackgrass” value ([1]; Rate 500 g/ha, Postemergence)?
**A.** Its value is 3.

**Q.** And the “Plant response rating, Blackgrass” value ([1]; Rate 500 g/ha, Preemergence)?
**A.** The value was 4.

**Q.** What about the “Plant response rating, Nutsedge” value ([2]; Rate 62 g/ha, Postemergence) of the same molecule?
**A.** The value was 0.

**Q.** And the “Nutsedge plant response rating” value ([2]; Rate 62 g/ha, Preemergence)?
**A.** The value was 0.

**Q.** What about the “Plant response rating, Nutsedge” value ([2]; Rate 125 g/ha, Postemergence) of the same molecule?
**A.** Its value is 0.

**Q.** What about the “Nutsedge plant response rating” value ([2]; Rate 125 g/ha, Preemergence) of the same molecule?
**A.** Its value is 0.

**Q.** What about the “Plant response rating, Nutsedge” value ([2]; Rate 250 g/ha, Postemergence) of the same molecule?
**A.** Its value is 0.

**Q.** And the “Plant response rating, Nutsedge” value ([2]; Rate 250 g/ha, Preemergence)?
**A.** Its value is 0.

**Q.** And the “Plant response rating, Nutsedge” value ([2]; Rate 500 g/ha, Postemergence)?
**A.** Its value is 1.

**Q.** What about the “Plant response rating, Nutsedge” value ([2]; Rate 500 g/ha, Preemergence) of the same molecule?
**A.** Its value is 0.

**Q.** What about the “Plant response rating, Crabgrass” value ([3]; Rate 62 g/ha, Postemergence) of the same molecule?
**A.** The value was 2.

**Q.** What about the “Crabgrass plant response rating” value ([3]; Rate 62 g/ha, Preemergence) of the same molecule?
**A.** Its value is 0.

**Q.** What about the “Plant response rating, Crabgrass” value ([3]; Rate 125 g/ha, Postemergence) of the same molecule?
**A.** The value was 2.

**Q.** And the “Crabgrass plant response rating” value ([3]; Rate 125 g/ha, Preemergence)?
**A.** The value was 0.

**Q.** And the “Plant response rating, Crabgrass” value ([3]; Rate 250 g/ha, Postemergence)?
**A.** Its value is 2.

**Q.** And the “Plant response rating, Crabgrass” value ([3]; Rate 250 g/ha, Preemergence)?
**A.** Its value is 2.

**Q.** What about the “Plant response rating, Crabgrass” value ([3]; Rate 500 g/ha, Postemergence) of the same molecule?
**A.** The value was 7.

**Q.** And the “Plant response rating, Crabgrass” value ([3]; Rate 500 g/ha, Preemergence)?
**A.** Its value is 8.

**Q.** And the “Plant response rating, Soybean” value (soybean (Glycine max); Rate 62 g/ha, Postemergence)?
**A.** Its value is 3.

**Q.** What about the “Soybean plant response rating” value (soybean (Glycine max); Rate 62 g/ha, Preemergence) of the same molecule?
**A.** Its value is 0.

**Q.** What about the “Plant response rating, Soybean” value (soybean (Glycine max); Rate 125 g/ha, Postemergence) of the same molecule?
**A.** Its value is 3.

**Q.** And the “Soybean plant response rating” value (soybean (Glycine max); Rate 125 g/ha, Preemergence)?
**A.** The value was 0.

**Q.** And the “Plant response rating, Soybean” value (soybean (Glycine max); Rate 250 g/ha, Postemergence)?
**A.** Its value is 4.

**Q.** What about the “Plant response rating, Soybean” value (soybean (Glycine max); Rate 250 g/ha, Preemergence) of the same molecule?
**A.** The value was 0.

**Q.** And the “Plant response rating, Soybean” value (soybean (Glycine max); Rate 500 g/ha, Postemergence)?
**A.** The value was 4.

**Q.** And the “Plant response rating, Soybean” value (soybean (Glycine max); Rate 500 g/ha, Preemergence)?
**A.** The value was 0.

**Q.** Which results are given for `Cc1cnc(-n2ccc(C(F)(F)C(F)(F)F)n2)nc1C(=O)c1cccc(OC(F)(F)F)c1` [Compound 62]?
**A.** Plant response rating, Wild oats (wild oat (Avena fatua); [4]): 1; Wild oats plant response rating (wild oat (Avena fatua); Rate 62 g/ha, Postemergence): 1; Wild oats plant response rating (wild oat (Avena fatua); Rate 125 g/ha, Postemergence): 1; Plant response rating, Wild oats (wild oat (Avena fatua); Rate 125 g/ha, Preemergence): 3; Plant response rating, Wild oats (wild oat (Avena fatua); Rate 250 g/ha, Postemergence): 1; Plant response rating, Wild oats (wild oat (Avena fatua); Rate 250 g/ha, Preemergence): 4; Plant response rating, Wild oats (wild oat (Avena fatua); Rate 500 g/ha, Postemergence): 3; Plant response rating, Wild oats (wild oat (Avena fatua); Rate 500 g/ha, Preemergence): 4; Plant response rating, Blackgrass [1, 4]: 1; Blackgrass plant response rating ([1]; Rate 62 g/ha, Postemergence): 1; Blackgrass plant response rating ([1]; Rate 125 g/ha, Postemergence): 1; Plant response rating, Blackgrass ([1]; Rate 125 g/ha, Preemergence): 1; Plant response rating, Blackgrass ([1]; Rate 250 g/ha, Postemergence): 2; Plant response rating, Blackgrass ([1]; Rate 250 g/ha, Preemergence): 1; Plant response rating, Blackgrass ([1]; Rate 500 g/ha, Postemergence): 4; Plant response rating, Blackgrass ([1]; Rate 500 g/ha, Preemergence): 5; Plant response rating, Nutsedge [2, 4]: 0; Nutsedge plant response rating ([2]; Rate 62 g/ha, Postemergence): 0; Nutsedge plant response rating ([2]; Rate 125 g/ha, Postemergence): 0; Plant response rating, Nutsedge ([2]; Rate 125 g/ha, Preemergence): 0; Plant response rating, Nutsedge ([2]; Rate 250 g/ha, Preemergence): 0; Plant response rating, Nutsedge ([2]; Rate 500 g/ha, Preemergence): 0; Plant response rating, Crabgrass [3, 4]: 2; Crabgrass plant response rating ([3]; Rate 62 g/ha, Postemergence): 2; Crabgrass plant response rating ([3]; Rate 125 g/ha, Postemergence): 3; Plant response rating, Crabgrass ([3]; Rate 125 g/ha, Preemergence): 3; Plant response rating, Crabgrass ([3]; Rate 250 g/ha, Postemergence): 5; Plant response rating, Crabgrass ([3]; Rate 250 g/ha, Preemergence): 9; Plant response rating, Crabgrass ([3]; Rate 500 g/ha, Postemergence): 8; Plant response rating, Crabgrass ([3]; Rate 500 g/ha, Preemergence): 10; Plant response rating, Soybean (soybean (Glycine max); [4]): 0; Soybean plant response rating (soybean (Glycine max); Rate 62 g/ha, Postemergence): 1; Soybean plant response rating (soybean (Glycine max); Rate 125 g/ha, Postemergence): 1; Plant response rating, Soybean (soybean (Glycine max); Rate 125 g/ha, Preemergence): 0; Plant response rating, Soybean (soybean (Glycine max); Rate 250 g/ha, Postemergence): 1; Plant response rating, Soybean (soybean (Glycine max); Rate 250 g/ha, Preemergence): 0; Plant response rating, Soybean (soybean (Glycine max); Rate 500 g/ha, Postemergence): 2; Plant response rating, Soybean (soybean (Glycine max); Rate 500 g/ha, Preemergence): 1

From patent publication US6525001B1, “Substituted pyrimidine and pyridine herbicides” (Mid-American Commercialization Corporation, priority 1997, dated 2003)
